Columns and labels:
Male SD rats = assay: Oral glucose tolerance test in Sprague-Dawley rats; type: in vivo; settings: 3 mpk and 10 mpk, glucose 2 g/kg
Procedure: (§1) Male SD rats (8-10 weeks) were grouped based on basal glucose levels and animals were fasted for 16 hours. Glucose level of each animal was estimated in blood collected from tail vein before animals were dosed orally with 0.5% Tween 80 and 0.5% NaCMC (vehicle control) and compounds at 3 and 10 mpk (n=5). After 30 minutes of compound dosing, blood glucose was again estimated and 2 g/kg/10 ml (20%) of Glucose solution was administered orally to all the animals. Blood glucose was estimated at 15, 30, 60, 90 and 120 minutes time points after glucose administration. Accu-Check active blood glucose meter was utilised for estimation of blood from tail vein.
Glucose reduction observed in animals treated with GPR119 agonists is represented in terms of % AUC reduction. A greater glucose reduction in oral glucose tolerance test indicates the compound's efficacy in this rodent species.

Male C57BL/6 mice = assay: Oral glucose tolerance test in C57BL/6 mice; type: in vivo; settings: 3 mpk and 10 mpk, glucose 2 g/kg
Procedure: as §1, with “C57BL/6 mice” for “SD rats”
Glucose reduction observed in animals treated with compounds of present invention is represented in terms of % AUC reduction. A greater glucose reduction in oral glucose tolerance test indicates the compound's efficacy in this rodent species.

hGPR119 = biological target: T1, hGPR119 (Homo sapiens, UniProt Q8TDV5); assay: In vitro cyclic AMP assay (Cisbio dynamic 2 HTRF kit) in CHO-hGPR119 cells; type: cell-based; settings: cAMP; for activation at 1 µM: 1 h, compound at 1 μM, 60 min, read-out: Induction (% induction at 1 μM)
T1 construct: expressed in transfected cells; host or cells: CHO
T1 sequence (Q8TDV5 1-335): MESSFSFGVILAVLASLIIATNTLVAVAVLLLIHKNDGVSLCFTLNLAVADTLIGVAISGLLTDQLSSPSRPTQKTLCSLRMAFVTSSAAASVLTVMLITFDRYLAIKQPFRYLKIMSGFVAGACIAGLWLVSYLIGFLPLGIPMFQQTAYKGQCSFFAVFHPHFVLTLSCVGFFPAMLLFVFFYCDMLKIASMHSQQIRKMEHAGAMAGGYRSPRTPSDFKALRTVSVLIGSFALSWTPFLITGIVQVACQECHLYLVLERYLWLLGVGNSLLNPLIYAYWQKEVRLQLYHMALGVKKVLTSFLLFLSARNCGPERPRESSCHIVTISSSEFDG

activation at 1 µM (hGPR119) [%] | EC50 (hGPR119) [nM] | Structure (SMILES) | glucose reduction (% AUC reduction) in oral glucose tolerance test (Male SD rats) | glucose reduction (% AUC reduction) in oral glucose tolerance test (Male C57BL/6 mice)
75 | < 25 | CC(C)c1noc(N2CCC([C@H](C)Oc3nc4ccc(-c5cnc(Cl)nc5)nc4s3)CC2)n1 [Compound 1119, (S)-5-(4-(1-((5-(2-chloropyrimidin-5-yl)thiazolo[5,4-b]pyridin-2-yl)oxy)ethyl)piperidin-1-yl)-3-isopropyl-1,2,4-oxadiazole] | significant dose dependent glucose reduction | significant dose dependent glucose reduction
84 | 25 to 50 | CCc1cnc(N2CCC([C@H](C)Oc3nc4ccc(-c5ccnc(F)c5)nc4s3)CC2)nc1 [Compound 1104, (S)-2-(1-(1-(5-ethylpyrimidin-2-yl)piperidin-4-yl)ethoxy)-5-(2-fluoropyridin-4-yl)thiazolo[5,4-b]pyridine] | – | significant dose dependent glucose reduction
82 | < 25 | CC(C)c1noc(N2CCC([C@H](C)Oc3nc4ccc(-c5ccc(S(C)(=O)=O)nc5)nc4s3)CC2)n1 [Compound 1082, (S)-3-isopropyl-5-(4-(1-((5-(6-(methylsulfonyl)pyridin-3-yl)thiazolo[5,4-b]pyridin-2-yl)oxy)ethyl)piperidin-1-yl)-1,2,4-oxadiazole] | significant dose dependent glucose reduction | significant dose dependent glucose reduction
40 | – | CC(Oc1nc2ccc(-c3ccc(S(C)(=O)=O)cc3)nc2s1)C1CCN(c2ncc(Cl)cn2)CC1 (centres unmarked) [Compound 1120, 2-(1-(1-(5-chloropyrimidin-2-yl)piperidin-4-yl)ethoxy)-5-(4-(methylsulfonyl)phenyl)thiazolo[5,4-b]pyridine] | – | significant dose dependent glucose reduction
81 | < 25 | CCCc1cnc(N2CCC([C@H](C)Oc3nc4ccc(-c5ccc(S(C)(=O)=O)nc5)nc4s3)CC2)nc1 [Compound 1099, (S)-5-(6-(methylsulfonyl)pyridin-3-yl)-2-(1-(1-(5-propylpyrimidin-2-yl)piperidin-4-yl)ethoxy)thiazolo[5,4-b]pyridine] | significant dose dependent glucose reduction | significant dose dependent glucose reduction
86 | < 25 | CCc1cnc(N2CCC([C@H](C)Oc3nc4ccc(-c5cnc(Cl)nc5)nc4s3)CC2)nc1 [Compound 1135, 2-((S)-1-(1-(5-ethylpyrimidin-2-yl)piperidin-4-yl)ethoxy)-5-(2-chloropyrimidin-5-yl)thiazolo[5,4-b]pyridine] | significant dose dependent glucose reduction | significant dose dependent glucose reduction
75 | < 25 | CCc1cnc(N2CCC([C@H](C)Oc3nc4ccc(-c5ccc(S(C)(=O)=O)nc5)nc4s3)CC2)nc1 [Compound 1106, (S)-2-(1-(1-(5-ethylpyrimidin-2-yl)piperidin-4-yl)ethoxy)-5-(6-(methylsulfonyl)pyridin-3-yl)thiazolo[5,4-b]pyridine] | significant dose dependent glucose reduction | significant dose dependent glucose reduction
72 | – | CC(C)c1noc(N2CCC(C(Oc3nc4ccc(-c5ccc(S(C)(=O)=O)nc5)nc4s3)C(F)(F)F)CC2)n1 (centres unmarked) [Compound 1102, 3-isopropyl-5-(4-(2,2,2-trifluoro-1-((5-(6-(methylsulfonyl)pyridin-3-yl)thiazolo[5,4-b]pyridin-2-yl)oxy)ethyl)piperidin-1-yl)-1,2,4-oxadiazole] | – | –
3 | – | CN(C)C(=O)N1CC=C(c2nc3ccc(-c4ccc(S(C)(=O)=O)cc4)nc3s2)CC1 [Compound 1027, N,N-dimethyl-4-(5-(4-(methylsulfonyl)phenyl)thiazolo[5,4-b]pyridin-2-yl)-5,6-dihydropyridine-1(2H)-carboxamide] | – | –
5 | – | CC(C)c1noc(N2CC[C@@H](COc3nc4ccc(-c5ccc(S(C)(=O)=O)cc5)nc4s3)[C@H](F)C2)n1 [Compound 1129, 5-((3S,4S)-3-fluoro-4-(((5-(4-(methylsulfonyl)phenyl)thiazolo[5,4-b]pyridin-2-yl)oxy)methyl)piperidin-1-yl)-3-isopropyl-1,2,4-oxadiazole] | – | –
5 | – | CCc1cnc(N2CCC(C(=O)Nc3nc4ccc(-c5ccc(S(C)(=O)=O)cc5)nc4s3)CC2)nc1 [Compound 1014, 1-(5-ethylpyrimidin-2-yl)-N-(5-(4-(methylsulfonyl)phenyl)thiazolo[5,4-b]pyridin-2-yl)piperidine-4-carboxamide] | – | –
12 | – | CC(C)c1nsc(N2CCC(C(C)Oc3nc4ccc(-c5ccc(S(C)(=O)=O)cc5)nc4s3)CC2)n1 (centres unmarked) [Compound 1107, 2-(1-(1-(3-isopropyl-1,2,4-thiadiazol-5-yl)piperidin-4-yl)ethoxy)-5-(4-(methylsulfonyl)phenyl)thiazolo[5,4-b]pyridine] | – | –
70 | – | COCc1cnc(N2CCC([C@@H](C)Oc3nc4ccc(-c5ccc(S(C)(=O)=O)nc5)nc4s3)CC2)nc1 [Compound 1165, 2-((R)-1-(1-(5-(methoxymethyl)pyrimidin-2-yl)piperidin-4-yl)ethoxy)-5-(6-(methylsulfonyl)pyridin-3-yl)thiazolo[5,4-b]pyridine] | – | –
12 | – | CC(C)c1noc(C2CCN(c3nc4ccc(-c5ccncc5)nc4s3)CC2)n1 [Compound 1077, 3-isopropyl-5-(1-(5-(pyridin-4-yl)thiazolo[5,4-b]pyridin-2-yl)piperidin-4-yl)-1,2,4-oxadiazole] | – | –
30 | – | CC(C)c1noc(N2CCC(C(C)Oc3nc4ccc(-c5cnsc5)nc4s3)CC2)n1 (centres unmarked) [Compound 1124, 2-(1-(1-(3-isopropyl-1,2,4-oxadiazol-5-yl)piperidin-4-yl)ethoxy)-5-(isothiazol-4-yl)thiazolo[5,4-b]pyridine] | – | –
57 | – | CC(Oc1nc2ccc(-c3ccc(S(C)(=O)=O)cc3)nc2s1)C1CCN(c2nc(C3CC3)no2)CC1 (centres unmarked) [Compound 1048, 3-cyclopropyl-5-(4-(1-((5-(4-(methylsulfonyl)phenyl)thiazolo[5,4-b]pyridin-2-yl)oxy)ethyl)piperidin-1-yl)-1,2,4-oxadiazole] | – | –
24 | – | COCCS(=O)(=O)c1ccc(-c2ccc3nc(N4CCC(c5nc(C(C)C)no5)CC4)sc3n2)cc1 [Compound 1078, 3-isopropyl-5-(1-(5-(4-((2-methoxyethyl)sulfonyl)phenyl)thiazolo[5,4-b]pyridin-2-yl)piperidin-4-yl)-1,2,4-oxadiazole] | – | –
5 | – | Cc1ccc(S(=O)(=O)N2CC=C(c3nc4ccc(-c5ccc(S(C)(=O)=O)cc5)nc4s3)CC2)cc1 [Compound 1026, 5-(4-(methylsulfonyl)phenyl)-2-(1-tosyl-1,2,3,6-tetrahydropyridin-4-yl)thiazolo[5,4-b]pyridine] | – | –
3 | – | CCc1cnc(N2CCN(c3nc4ccc(-c5ccc(S(C)(=O)=O)cc5)nc4s3)CC2)nc1 [Compound 1008, 2-(4-(5-ethylpyrimidin-2-yl)piperazin-1-yl)-5-(4-(methylsulfonyl)phenyl)thiazolo[5,4-b]pyridine] | – | –
13 | – | CC(C)c1noc(C2CCN(c3nc4ccc(-c5ccc(S(C)(=O)=O)cc5)nc4s3)C2)n1 (centres unmarked) [Compound 1021, 3-isopropyl-5-(1-(5-(4-(methylsulfonyl)phenyl)thiazolo[5,4-b]pyridin-2-yl)pyrrolidin-3-yl)-1,2,4-oxadiazole] | – | –

From patent publication US10526345B2, “Compounds as GPR119 agonists” (Mankind Pharma Ltd., priority 2016, dated 2020)
